Key:
[1] = test system: Bax; test: Bax ELISA in MCF-7; assay type: cell-based, human; conditions: ½ IC50, IC50, 2×IC50, dose dependent
Description: The apoptotic effect of compound 7f on breast cancer cell line MCF-7 were evaluated by quantification of Bax, caspase 3/7, and Bcl-2 using Bax ELISA Kit ab199080 (ABCAM, Cambridge, UK), Caspase-Glo 3/7 assay kits (Promega, Fitchburg, MA, USA), and Bcl-2 ELISA Kit ab119506 (ABCAM, Cambridge, UK), according the instructions of manufacturers[11]^,[14]. The cells were treated with compounds 7f (½ IC50, IC50, or 2 ×IC50), and the activities were shown as a percentage change from the untreated control. The experiments were performed in triplicate applying two-way ANOVA test followed by Bonferroni posttest to evaluate the significance (p < 0.05).

[2] = test system: human prostate cancer (PC-3); test: SRB cytotoxicity assay, PC-3; assay type: cell-based; conditions: PC-3 cells
Description: (§1) The SRB colorimetric assay was employed to assess the synthesized compounds’ cytotoxic effects on several cancer cell lines (Table 1)[11–14]. […] Furthermore, the effect of tested compounds was evaluated on the normal immortalized HPDE cell line.
(§2) Sulforhodamine B (SRB) assay was employed to assay in-vitro antitumor activities of all the synthesised compounds as describer previously. […] The cell lines were obtained from the American Type Culture Collection (Rockville, USA).

[3] = test system: normal immortalised pancreatic cell line (HPDE); test: SRB cytotoxicity assay, normal HPDE cells; assay type: cell-based; conditions: normal immortalized HPDE cell line
Description: as §1, §2

## N=C(N)NCCCC(NC(=O)c1ccc(Nc2ncnc3c2cnn3-c2ccccc2)cc1)C(=O)O (stereo not drawn) [Compound 7f, 5-Guanidino-2-{4-[(1-phenyl-1H-pyrazolo[3,4-d]pyrimidin-4-yl)amino]benzamido}pentanoic acid]
[1]
  release of Bax protein: significantly surge the release
[2]
  IC50: 6.29 ± 0.56 µM
[3]
  IC50: > 50 µM

— article PMC9673804, “Design, synthesis and antitumor evaluation of novel pyrazolo[3,4-d]pyrimidines incorporating different amino acid conjugates as potential DHFR inhibitors” (Journal of Enzyme Inhibition and Medicinal Chemistry, 2022)
